The values below are quoted from earlier work in patent US20250319084A1, “ENDOCRINE THERAPY AND ABEMACICLIB COMBINATION FOR THE ADJUVANT TREATMENT OF NODE-POSITIVE, EARLY STAGE, HORMONE RECEPTOR-POSITIVE, HUMAN EPIDERMAL GROWTH FACTOR RECEPTOR 2-NEGATIVE BREAST CANCER” (Eli Lilly and Company, priority 2017, published 2025).

Read-outs that look alike come from different tables or passages of the source.

The subject of data set [1] is HR+metastatic breast cancer. Conditions: JPBA Phase 1b, continuously dosed single agent, across dose levels, heavily pretreated HR+ metastatic breast cancer refractory to endocrine therapy.
Data set [2] concerns HR+metastatic breast cancer. Conditions: MONARCH 1 Phase 2, single agent, 200-mg dose twice daily, heavily pretreated HR+ metastatic breast cancer refractory to endocrine therapy.
Data set [3] concerns early neoadjuvant breast cancer. Conditions: 150 mg twice daily, as monotherapy and in combination with anastrozole.
Data set [4] has as its system human cancer xenografts, including breast cancer. Conditions: multiple murine xenograft models for human cancer. A general note: In xenograft studies the graft and the host belong to different species.
The conditions of data set [5]: nonclinical species.
Data set [6] concerns 46 breast cancer cell lines. Conditions: panel of 46 breast cancer cell lines representing known molecular subgroups.
Data set [7] concerns HR+ early breast cancer involving axillary lymph nodes.

For the molecule `CCN1CCN(Cc2ccc(Nc3ncc(F)c(-c4cc(F)c5nc(C)n(C(C)C)c5c4)n3)nc2)CC1` [Abemaciclib, [5-(4-ethyl-piperazin-1-ylmethyl)-pyridin-2-yl]-[5-fluoro-4-(7-fluoro-3-isopropyl-2-methyl-3H-benzoimidazol-5-yl)-pyrimidin-2-yl]-amine], the response rate is 33.3% in data set [1] and 19.7% in data set [2]. The tolerability entry in the data set with HR+mBC (JPBH Phase 1b, combined with standard endocrine therapies) is given as “tolerable”. For the same molecule, the “most common adverse events” value with HR+mBC (JPBH, abemaciclib plus endocrine therapy, predominantly low-grade severity, appear dose-dependent) is “fatigue, nausea, diarrhea, leukopenia, lymphopenia, neutropenia, and anemia”. Besides, the safety profile entry in data set [3] is “acceptable safety profile”. The “reduction of tumor cell proliferation marker (Ki67 index)” value in data set [3] (versus anastrozole alone) is recorded as “to a significantly greater extent than anastrozole alone”. In addition, the tumor growth inhibition result in data set [4] is on record as “significantly inhibit tumor growth”. The toxicity profile entry in data set [5] is given as “acceptable toxicity profile”. In addition, the “growth inhibition in vitro (sensitivity by subgroup)” value in data set [6] is “sensitivity to CDK4 and CDK6 inhibition is greater in ER+breast cancers with luminal histology”.
On to `N#Cc1ccc(C(c2ccc(C#N)cc2)n2cncn2)cc1` [letrozole], for which the 4-year disease-free survival is reported as 85% in data set [7] (BIG 1-98, patients with higher Ki67 values (>11%)) and 93% in data set [7] (BIG 1-98, patients with low (≤11%) Ki67 levels at baseline).
